Patent publication US20170253607A1, “LONG-ACTING HIV PROTEASE INHIBITOR” (Shionogi & Co., Ltd., priority 2014, published 2017)

biological target: HIV-1 PR (Human immunodeficiency virus type 1 group M subtype B, UniProt P04585); assay: HIV-protease inhibitory activity assay (FRET peptide substrate); type: biochemical; settings: Test Example 1
How it was run: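 HIV-1 PR (0.83 ng) preincubated with compounds 20 min at room temperature in 0.1 mol/L NaAc, 0.5 mol/L NaCl, 1 mmol/L EDTA, 1 mmol/L DTT, 0.05% Tween 20, pH 4.8. Cleavage of HiLyte Fluor 488/QXL 520 FRET peptide (2 μmol/L) read after 60 minutes at 485/535 nm; IC50 from four-parameter logistic fit.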

Compound	IC50
COc1ccc(S(=O)(=O)N(CC(C)C)CC(O)C(Cc2ccc(NCc3cccc(C)c3C(=O)Nc3sc4c(c3C(=O)O)CC(C)(C)CC4)cc2)NC(=O)OC2COC3(C)OCCC23)cc1 (stereo not shown) [Compound I-718]	3.97 nM
COc1ccc(S(=O)(=O)N(CC(C)C)CC(O)C(Cc2ccc(NCc3cc(-c4ccc(-c5ccccc5)cc4)ccc3-c3sc4c(c3C(=O)O)CC(C)(C)CC4)cc2)NC(=O)OC2COC3(C)OCCC23)cc1 (stereo not shown) [Compound I-721]	2.24 nM
CC=Cc1ccc(-c2sc3c(c2C(=O)O)CC(C)(C)CC3)c(CNc2ccc(CC(NC(=O)OC3COC4(C)OCCC34)C(O)CN(CC(C)C)S(=O)(=O)c3ccc(OC)cc3)cc2)c1 (stereo not shown) [Compound I-723]	1.65 nM
COc1ccc(S(=O)(=O)N(CC(C)C)CC(O)C(Cc2ccc(NCc3cc(-c4ccc5c(c4)[nH]c4ccccc45)ccc3-c3sc4c(c3C(=O)O)CC(C)(C)CC4)cc2)NC(=O)OC2COC3(C)OCCC23)cc1 (stereo not shown) [Compound I-724]	1.83 nM
COc1ccc(S(=O)(=O)N(CC(C)C)CC(O)C(Cc2ccc(NCc3cc(N4CC(C)(C)C4=O)ccc3-c3sc4c(c3C(=O)O)CC(C)(C)CC4)cc2)NC(=O)OC2COC3(C)OCCC23)cc1 (stereo not shown) [Compound I-728]	2.96 nM
COc1ccc(S(=O)(=O)N(CC(C)C)CC(O)C(Cc2ccc(NCc3cc(N4CCCCC4=O)ccc3-c3sc4c(c3C(=O)O)CC(C)(C)CC4)cc2)NC(=O)OC2COC3(C)OCCC23)cc1 (stereo not shown) [Compound I-729]	1.64 nM
COc1ccc(S(=O)(=O)N(CC(C)C)CC(O)C(Cc2ccc(N(C)Cc3cc(N4CC(C)(C)C4=O)ccc3-c3sc4c(c3C(=O)O)CC(C)(C)CC4)cc2)NC(=O)OC2COC3(C)OCCC23)cc1 (stereo not shown) [Compound I-730]	2.84 nM
COc1ccc(S(=O)(=O)N(CC(C)C)CC(O)C(Cc2ccc(N(C)Cc3cc(N4CCCCC4=O)ccc3-c3sc4c(c3C(=O)O)CC(C)(C)CC4)cc2)NC(=O)OC2COC3(C)OCCC23)cc1 (stereo not shown) [Compound I-731]	1.96 nM
COc1ccc(S(=O)(=O)N(CC(C)C)CC(O)C(Cc2ccc(NCc3cc(OC)ccc3C(=O)Nc3sc4c(c3C(=O)O)CC(C)(C)CC4)cc2)NC(=O)OC2COC3(C)OCCC23)cc1 (stereo not shown) [Compound I-732]	3.26 nM
COc1ccc(S(=O)(=O)N(CC(C)C)CC(O)C(Cc2ccc(N(C)Cc3cc(C(F)(F)F)ccc3C(=O)Nc3sc4c(c3C(=O)O)CC(C)(C)CC4)cc2)NC(=O)OC2COC3(C)OCCC23)cc1 (stereo not shown) [Compound I-734]	15.4 nM
COc1ccc(S(=O)(=O)N(CC(C)C)CC(O)C(Cc2ccc(NCC3CC(C)(C)CC3c3sc4c(c3C(=O)O)CC(C)(C)CC4)cc2)NC(=O)OC2COC3(C)OCCC23)cc1 (stereo not shown) [Compound I-735]	1.56 nM
COc1ccc(S(=O)(=O)N(CC(C)C)CC(O)C(Cc2ccc(NCc3nc(N4CCCCC4)sc3-c3sc4c(c3C(=O)O)CC(C)(C)CC4)cc2)NC(=O)OC2COC3(C)OCCC23)cc1 (stereo not shown) [Compound I-737]	1.99 nM
COc1ccc(S(=O)(=O)N(CC(C)C)CC(O)C(Cc2ccc(NCc3nc(N4CCOCC4)sc3-c3sc4c(c3C(=O)O)CC(C)(C)CC4)cc2)NC(=O)OC2COC3(C)OCCC23)cc1 (stereo not shown) [Compound I-738]	1.8 nM
COc1ccc(S(=O)(=O)N(CC(C)C)CC(O)C(Cc2ccc(NCc3ccc(N4CC(C)(C)C4=O)cc3-c3sc4c(c3C(=O)O)CC(C)(C)CC4)cc2)NC(=O)OC2COC3(C)OCCC23)cc1 (stereo not shown) [Compound I-740]	1.6 nM
COc1ccc(S(=O)(=O)N(CC(C)C)CC(O)C(Cc2ccc(N(C)Cc3ccc(N4CCCCC4=O)cc3-c3sc4c(c3C(=O)O)CC(C)(C)CC4)cc2)NC(=O)OC2COC3(C)OCCC23)cc1 (stereo not shown) [Compound I-743]	2.32 nM
COc1ccc(S(=O)(=O)N(CC(C)C)CC(O)C(Cc2ccc(N(C)Cc3ccc(N4CCCC4=O)cc3-c3sc4c(c3C(=O)O)CC(C)(C)CC4)cc2)NC(=O)OC2COC3(C)OCCC23)cc1 (stereo not shown) [Compound I-744]	2.14 nM

Compound	IC50
COc1ccc(S(=O)(=O)N(CC(C)C)CC(O)C(Cc2ccc(N(C)Cc3ccc(C)cc3C(=O)Nc3sc4c(c3C(=O)O)CC(C)(C)CC4)cc2)NC(=O)OC2COC3(C)OCCC23)cc1 (stereo not shown) [Compound I-745]	3.39 nM
COc1ccc(S(=O)(=O)N(CC(C)C)CC(O)C(Cc2ccc(N(C)Cc3cc(C)ccc3C(=O)Nc3sc4c(c3C(=O)O)CC(C)(C)CC4)cc2)NC(=O)OC2COC3(C)OCCC23)cc1 (stereo not shown) [Compound I-746]	2.81 nM
COc1ccc(S(=O)(=O)N(CC(C)C)CC(O)C(Cc2ccc(N(C)Cc3cccc(C)c3C(=O)Nc3sc4c(c3C(=O)O)CC(C)(C)CC4)cc2)NC(=O)OC2COC3(C)OCCC23)cc1 (stereo not shown) [Compound I-747]	4.35 nM
COc1ccc(S(=O)(=O)N(CC(C)C)CC(O)C(Cc2ccc(NCc3c(F)cccc3C(=O)Nc3sc4c(c3C(=O)O)CC(C)(C)CC4)cc2)NC(=O)OC2COC3(C)OCCC23)cc1 (stereo not shown) [Compound I-748]	2.39 nM
COc1ccc(S(=O)(=O)N(CC(C)C)CC(O)C(Cc2ccc(NCc3cccc(F)c3C(=O)Nc3sc4c(c3C(=O)O)CC(C)(C)CC4)cc2)NC(=O)OC2COC3(C)OCCC23)cc1 (stereo not shown) [Compound I-749]	2.33 nM
COc1ccc(S(=O)(=O)N(CC(C)C)CC(O)C(Cc2ccc(N(C)Cc3ccc(N4CC(C)(C)C4=O)cc3-c3sc4c(c3C(=O)O)CC(C)(C)CC4)cc2)NC(=O)OC2COC3(C)OCCC23)cc1 (stereo not shown) [Compound I-750]	4.6 nM
COc1ccc(S(=O)(=O)N(CC(C)C)CC(O)C(Cc2ccc(NC3CCCc4c(-c5sc6c(c5C(=O)O)CC(C)(C)CC6)cccc43)cc2)NC(=O)OC2COC3(C)OCCC23)cc1 (stereo not shown) [Compound I-751]	15.7 nM
COc1ccc(S(=O)(=O)N(CC(C)C)CC(O)C(Cc2ccc(NC3CCCc4c(-c5sc6c(c5C(=O)O)CC(C)(C)CC6)cccc43)cc2)NC(=O)OC2COC3(C)OCCC23)cc1 (stereo not shown) [Compound I-752]	13.3 nM
COc1ccc(S(=O)(=O)N(CC(C)C)CC(O)C(Cc2ccc(NCc3nc(N4CCC4)sc3-c3sc4c(c3C(=O)O)CC(C)(C)CC4)cc2)NC(=O)OC2COC3(C)OCCC23)cc1 (stereo not shown) [Compound I-753]	2.39 nM
COc1ccc(S(=O)(=O)N(CC(C)C)CC(O)C(Cc2ccc(NCc3cc4c(cc3-c3sc5c(c3C(=O)O)CC(C)(C)CC5)OCC(=O)N4)cc2)NC(=O)OC2COC3(C)OCCC23)cc1 (stereo not shown) [Compound I-754]	2.49 nM
COc1ccc(S(=O)(=O)N(CC(C)C)CC(O)C(Cc2ccc(N(C)Cc3nc(N4CCCC4)ccc3-c3sc4c(c3C(=O)O)CC(C)(C)CC4)cc2)NC(=O)OC2COC3(C)OCCC23)cc1 (stereo not shown) [Compound I-755]	2.69 nM
COc1ccc(S(=O)(=O)N(CC(C)C)CC(O)C(Cc2ccc(N(C)Cc3nc(N4CCCCC4)sc3-c3sc4c(c3C(=O)O)CC(C)(C)CC4)cc2)NC(=O)OC2COC3(C)OCCC23)cc1 (stereo not shown) [Compound I-756]	3.46 nM
COc1ccc(S(=O)(=O)N(CC(C)C)CC(O)C(Cc2ccc(N(C)Cc3nc(N4CCOCC4)sc3-c3sc4c(c3C(=O)O)CC(C)(C)CC4)cc2)NC(=O)OC2COC3(C)OCCC23)cc1 (stereo not shown) [Compound I-757]	3.02 nM
COc1ccc(S(=O)(=O)N(CC(C)C)CC(O)C(Cc2ccc(N(C)Cc3nc(N4CCN(C)CC4)sc3-c3sc4c(c3C(=O)O)CC(C)(C)CC4)cc2)NC(=O)OC2COC3(C)OCCC23)cc1 (stereo not shown) [Compound I-758]	1.62 nM
COc1ccc(S(=O)(=O)N(CC(C)C)CC(O)C(Cc2ccc(NCc3cc4c(cc3-c3sc5c(c3C(=O)O)CC(C)(C)CC5)OCC(=O)N4C)cc2)NC(=O)OC2COC3(C)OCCC23)cc1 (stereo not shown) [Compound I-759]	2.55 nM
